Literature values in US20040253138A1, “Plasmon enhanced body treatment and bacterial management” (American Environmental Systems, Inc., priority 2003, published 2004).
Where two headings read alike, the source gives them in different places.

System: E. coli (E. coli-B (SR-9) and E. coli K-12)
Conditions: one hour exposure

| SMILES | logs of inactivation (30 ppm hydrogen peroxide) | logs of inactivation (30 ppb silver) |
| --- | --- | --- |
| OO [hydrogen peroxide] | 0.65 logs | – |
| [Ag+] [silver] | – | 2.87 logs |
